Measured values taken from patent US9637491B2, “Pyrazolo[4,3-D]pyrimidines as kinase inhibitors” (Origenis GmbH, priority 2012, dated 2017).

Biological target: T1, SYK kinase (Homo sapiens, UniProt P43405)
T1 construct: purchased Invitrogen, Carlsbad
Test: SYK assay (OMNIA Kinase Assay, Invitrogen)
Assay type: biochemical
Details: SYK Activities; 1 mM ATP, 10 μM Omnia Peptide Substrate Tyr 7, 30° C.
Summary of the method: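 SYK was added last to start phosphorylation of a chelation-enhanced SOX peptide substrate (10 μM) in the presence of 1 mM ATP and 0.2 mM DTT at 30° C. Kinetic readings at λex 360/λem 485 nm over 30 min gave velocities, fitted sigmoidally against compound concentration to give IC50.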

Structure (SMILES)	IC50
CC(C)Cn1cc(Nc2nc(C3CC3)nc3cn[nH]c23)cn1 [Example 233, 5-cyclopropyl-N-(1-isobutyl-1H-pyrazol-4-yl)-1H-pyrazolo[4,3-d]pyrimidin-7-amine]	0.01 to 0.1 µM
CC(=O)N1CCN(c2ccc(Nc3nc(-c4ccco4)nc4cn[nH]c34)cc2)CC1 [Example 111, 1-(4-(4-((5-(furan-2-yl)-1H-pyrazolo[4,3-d]pyrimidin-7-yl)amino)phenyl)piperazin-1-yl)ethan-1-one]	0.01 to 0.1 µM
CC(C)Cn1cc(Nc2nc(-c3cnn(C)c3)nc3cn[nH]c23)cn1 [Example 437, N-(1-isobutyl-1H-pyrazol-4-yl)-5-(1-methyl-1H-pyrazol-4-yl)-1H-pyrazolo[4,3-d]pyrimidin-7-amine]	0.01 to 0.1 µM
CN(C)C(=O)Cn1cc(Nc2nc(C3CCC3)nc3cn[nH]c23)cn1 [Example 461, 2-(4-((5-cyclobutyl-1H-pyrazolo[4,3-d]pyrimidin-7-yl)amino)-1H-pyrazol-1-yl)-N,N-dimethylacetamide]	0.1 to 1 µM
CC(C)(C)N1CCN(c2ccc(Nc3nc(-c4ccoc4)nc4cn[nH]c34)cc2)CC1 [Example 97, N-(4-(4-(tert-butyl)piperazin-1-yl)phenyl)-5-(furan-3-yl)-1H-pyrazolo[4,3-d]pyrimidin-7-amine]	0.01 to 0.1 µM
CN1CCC(n2cc(Nc3nc(-c4nc5ccccc5s4)nc4cn[nH]c34)cn2)CC1 [Example 459, 5-(benzo[d]thiazol-2-yl)-N-(1-(1-methylpiperidin-4-yl)-1H-pyrazol-4-yl)-1H-pyrazolo[4,3-d]pyrimidin-7-amine]	0.01 to 0.1 µM
CC(C)n1cc(Nc2nc(-c3cocn3)nc3cn[nH]c23)cn1 [Example 244, N-(1-isopropyl-1H-pyrazol-4-yl)-5-(oxazol-4-yl)-1H-pyrazolo[4,3-d]pyrimidin-7-amine]	< 0.01 µM
CN1CCC(n2cc(Nc3nc(-c4nc5ccccc5o4)nc4cn[nH]c34)cn2)CC1 [Example 445, 5-(benzo[d]oxazol-2-yl)-N-(1-(1-methylpiperidin-4-yl)-1H-pyrazol-4-yl)-1H-pyrazolo[4,3-d]pyrimidin-7-amine]	0.01 to 0.1 µM
CC1(c2nc(Nc3ccc(N4CCOCC4)cc3)c3[nH]ncc3n2)CC1 [Example 99, 5-(1-methylcyclopropyl)-N-(4-morpholinophenyl)-1H-pyrazolo[4,3-d]pyrimidin-7-amine]	0.1 to 1 µM
COCCCn1cc(Nc2nc(-c3nc4ccccc4s3)nc3cn[nH]c23)cn1 [Example 412, 5-(benzo[d]thiazol-2-yl)-N-(1-(3-methoxypropyl)-1H-pyrazol-4-yl)-1H-pyrazolo[4,3-d]pyrimidin-7-amine]	< 0.01 µM
CC(=O)N1CCC(n2cc(Nc3nc(-c4ccoc4)nc4cn[nH]c34)cn2)CC1 [Example 200, 1-(4-(4-((5-(furan-3-yl)-1H-pyrazolo[4,3-d]pyrimidin-7-yl)amino)-1H-pyrazol-1-yl)piperidin-1-yl)ethan-1-one]	< 0.01 µM
COCCn1cc(Nc2nc(-c3cnn(C)c3)nc3cn[nH]c23)cn1 [Example 188, N-(1-(2-methoxyethyl)-1H-pyrazol-4-yl)-5-(1-methyl-1H-pyrazol-4-yl)-1H-pyrazolo[4,3-d]pyrimidin-7-amine]	0.1 to 1 µM
CC(C)Cn1cc(Nc2nc(-c3cccs3)nc3cn[nH]c23)cn1 [Example 432, N-(1-isobutyl-1H-pyrazol-4-yl)-5-(thiophen-2-yl)-1H-pyrazolo[4,3-d]pyrimidin-7-amine]	0.01 to 0.1 µM
COc1ccc(Nc2nc(-c3cccc(C(=O)Nc4ccc(-c5cnco5)cc4)c3)nc3cn[nH]c23)cc1OC [Example 319, 3-(7-((3,4-dimethoxyphenyl)amino)-1H-pyrazolo[4,3-d]pyrimidin-5-yl)-N-(4-(oxazol-5-yl)phenyl)benzamide]	0.1 to 1 µM
c1nn(C2CC2)cc1Nc1nc(C2CCC2)nc2cn[nH]c12 [Example 267, 5-cyclobutyl-N-(1-cyclopropyl-1H-pyrazol-4-yl)-1H-pyrazolo[4,3-d]pyrimidin-7-amine]	0.01 to 0.1 µM
CCCc1nc(Nc2ccc(N3CCOCC3)cc2)c2[nH]ncc2n1 [Example 386, N-(4-morpholinophenyl)-5-propyl-1H-pyrazolo[4,3-d]pyrimidin-7-amine]	0.1 to 1 µM
CC(C)(C)n1cc(Nc2nc(-c3cocn3)nc3cn[nH]c23)cn1 [Example 243, N-(1-(tert-butyl)-1H-pyrazol-4-yl)-5-(oxazol-4-yl)-1H-pyrazolo[4,3-d]pyrimidin-7-amine]	0.01 to 0.1 µM
CC(C)Cn1cc(Nc2nc(-c3ncco3)nc3cn[nH]c23)cn1 [Example 252, N-(1-isobutyl-1H-pyrazol-4-yl)-5-(oxazol-2-yl)-1H-pyrazolo[4,3-d]pyrimidin-7-amine]	0.1 to 1 µM
CC(C)Cn1cc(Nc2nc(-c3cccc(NS(C)(=O)=O)c3)nc3cn[nH]c23)cn1 [Example 261, N-(3-(7-((1-isobutyl-1H-pyrazol-4-yl)amino)-1H-pyrazolo[4,3-d]pyrimidin-5-yl)phenyl)methanesulfonamide]	0.1 to 1 µM
COCCn1cc(Nc2nc(-c3nc4ccccc4s3)nc3cn[nH]c23)cn1 [Example 456, 5-(benzo[d]thiazol-2-yl)-N-(1-(2-methoxyethyl)-1H-pyrazol-4-yl)-1H-pyrazolo[4,3-d]pyrimidin-7-amine]	< 0.01 µM

The remaining lines, values ahead:

IC50	Structure (SMILES)
0.01 to 0.1 µM	O=C1CCCc2ccc(Nc3nc(-c4ccc5cn[nH]c5c4)nc4cn[nH]c34)cc2N1 [Example 516, 8-((5-(1H-indazol-6-yl)-1H-pyrazolo[4,3-d]pyrimidin-7-yl)amino)-4,5-dihydro-1H-benzo[b]azepin-2(3H)-one]
0.1 to 1 µM	COc1cc(Nc2nc(-c3c(C)cccc3F)nc3cn[nH]c23)ccc1N1CCOCC1 [Example 481, 5-(2-fluoro-6-methylphenyl)-N-(3-methoxy-4-morpholinophenyl)-1H-pyrazolo[4,3-d]pyrimidin-7-amine]
0.1 to 1 µM	CS(=O)(=O)Nc1cccc(-c2nc(Nc3ccc4c(c3)NC(=O)CCC4)c3[nH]ncc3n2)c1 [Example 529, N-(3-(7-((2-oxo-2,3,4,5-tetrahydro-1H-benzo[b]azepin-8-yl)amino)-1H-pyrazolo[4,3-d]pyrimidin-5-yl)phenyl)methanesulfonamide]
0.01 to 0.1 µM	COc1ccc(Nc2nc(-c3ccco3)nc3cn[nH]c23)cc1OC [Example 87, N-(3,4-dimethoxyphenyl)-5-(furan-2-yl)-1H-pyrazolo[4,3-d]pyrimidin-7-amine]
0.01 to 0.1 µM	CN1CCN(c2ccc(Nc3nc(-c4c(F)cccc4F)nc4cn[nH]c34)cc2Cl)CC1 [Example 539, N-(3-chloro-4-(4-methylpiperazin-1-yl)phenyl)-5-(2,6-difluorophenyl)-1H-pyrazolo[4,3-d]pyrimidin-7-amine]
0.1 to 1 µM	Fc1cc(Nc2nc(-c3ccno3)nc3cn[nH]c23)ccc1N1CCOCC1 [Example 70, N-(3-fluoro-4-morpholinophenyl)-5-(isoxazol-5-yl)-1H-pyrazolo[4,3-d]pyrimidin-7-amine]
< 0.01 µM	c1nn(C2CCOCC2)cc1Nc1nc(-c2ccc3cn[nH]c3c2)nc2cn[nH]c12 [Example 134, 5-(1H-indazol-6-yl)-N-(1-(tetrahydro-2H-pyran-4-yl)-1H-pyrazol-4-yl)-1H-pyrazolo[4,3-d]pyrimidin-7-amine]
0.1 to 1 µM	c1cc(-c2nc(Nc3ccc(N4CCOCC4)cc3)c3[nH]ncc3n2)no1 [Example 74, 5-(isoxazol-3-yl)-N-(4-morpholinophenyl)-1H-pyrazolo[4,3-d]pyrimidin-7-amine]
0.01 to 0.1 µM	COCC(COC)n1cc(Nc2nc(-c3ccc4cn[nH]c4c3)nc3cn[nH]c23)cn1 [Example 448, N-(1-(1,3-dimethoxypropan-2-yl)-1H-pyrazol-4-yl)-5-(1H-indazol-6-yl)-1H-pyrazolo[4,3-d]pyrimidin-7-amine]
0.1 to 1 µM	Fc1cc(Nc2nc(-c3ccon3)nc3cn[nH]c23)ccc1N1CCOCC1 [Example 75, N-(3-fluoro-4-morpholinophenyl)-5-(isoxazol-3-yl)-1H-pyrazolo[4,3-d]pyrimidin-7-amine]
0.1 to 1 µM	CC(c1ccccc1)n1cc(Nc2nc(-c3ccc4cn[nH]c4c3)nc3cn[nH]c23)cn1 (centres unmarked) [Example 477, 5-(1H-indazol-6-yl)-N-(1-(1-phenylethyl)-1H-pyrazol-4-yl)-1H-pyrazolo[4,3-d]pyrimidin-7-amine]
0.01 to 0.1 µM	COc1cc(Nc2nc(-c3c(F)cccc3Cl)nc3cn[nH]c23)ccc1N1CCOCC1 [Example 514, 5-(2-chloro-6-fluorophenyl)-N-(3-methoxy-4-morpholinophenyl)-1H-pyrazolo[4,3-d]pyrimidin-7-amine]
0.1 to 1 µM	O=C1CCCc2ccc(Nc3nc(-c4c(F)cccc4F)nc4cn[nH]c34)cc2N1 [Example 521, 8-((5-(2,6-difluorophenyl)-1H-pyrazolo[4,3-d]pyrimidin-7-yl)amino)-4,5-dihydro-1H-benzo[b]azepin-2(3H)-one]
0.1 to 1 µM	COc1cc(Nc2nc(-c3ccno3)nc3cn[nH]c23)ccc1N1CCOCC1 [Example 71, 5-(isoxazol-5-yl)-N-(3-methoxy-4-morpholinophenyl)-1H-pyrazolo[4,3-d]pyrimidin-7-amine]
0.01 to 0.1 µM	CC(=O)N1CCC(n2cc(Nc3nc(-c4ccc5cn[nH]c5c4)nc4cn[nH]c34)cn2)CC1 [Example 133, 1-(4-(4-((5-(1H-indazol-6-yl)-1H-pyrazolo[4,3-d]pyrimidin-7-yl)amino)-1H-pyrazol-1-yl)piperidin-1-yl)ethan-1-one]
